In patent publication US12329827B2, “Devices, compositions and related methods for accelerating and enhancing bone repair” (THE REGENTS OF THE UNIVERSITY OF MICHIGAN, priority 2015, dated 2025):

Experiments:
[1] = tested on: murine mandibular DO model; assay: Mandibular distraction osteogenesis model, DFO injections into the regenerate gap (Example I); format: in vivo, Sprague-Dawley rats
Excerpt: The effectiveness of DFO in enhancing regenerate vascularity at a full consolidation period (28 days) in a murine mandibular DO model was established. To investigate whether this augmentation in vascularity would function to accelerate consolidation without compromising regenerate quality or strength, consolidation periods prior to μCT imaging and biomechanical testing (BMT) were progressively shortened. Three time points (14 d, 21 d and 28 d) were selected and six groups of Sprague-Dawley rats (n=60) were equally divided into control (C) and experimental (E) groups for each time period. Each group underwent external fixator placement, mandibular osteotomy, and a 5.1 mm distraction. During distraction, the experimental groups were treated with DFO injections into the regenerate gap. After consolidation, mandibles were imaged and tension tested to failure. ANOVA was conducted between groups, and p<0.05 was considered statistically significant. […] The benefit of treatment was further substantiated by a striking 100% increase in the number of clinically appreciated bony unions at this early time-period (C:4/10 vs. E:8/10, FIG. 2) (see, e.g., Donneys, Alexis, et al., Bone 55.2 (2013): 384-390).

[2] = tested on: irradiated mandibular fractures; assay: Irradiated mandibular fracture, implanted nano-DFO vs standard DFO (Example V); format: in vivo, Rats; details: radiated fracture, 40-day healing
Procedure: Rats (n=44) were divided into 4 groups. Fracture, radiated fracture, radiated fracture with standard DFO and radiated fracture with nano-DFO. Radiated groups received radiotherapy 2 weeks prior to mandibular osteotomy. The nano-DFO group received implantation of the drug at the time of surgery. Following a 40-day healing period, mandibles were assessed for bony-union, imaged with μCT, and mechanically tested to failure. ANOVA was used for comparison and (p<0.05).

[3] = tested on: human umbilical vein endothelial (HUVEC) cells exposed to radiation; assay: Tubule formation of irradiated HUVEC cells in Matrigel (Example III); format: cell-based
Procedure: The effect of DFO on endothelial cells exposed to radiation in vitro was investigated. […] Four groups of human umbilical vein endothelial (HUVEC) cells (control, radiated, radiated+low dose DFO, or radiated+high dose DFO) were incubated in Matrigel and video recorded in real-time over 12 hours. DFO groups received either 25 or 50 μM doses at the time of incubation. Tubule formation was photographed at 100× magnification every four hours. Tubule numbers between groups were compared using ANOVA with p≤0.05 considered statistically significant. A severe diminution in endothelial tubule formation after radiotherapy was observed. Specifically, tubule formation was diminished 30%, 34%, and 27% respectively, compared to control values (p=0.01, at 4, 8, and 12 hours). The effects of radiation were strikingly remediated by treatment with high-dose DFO. […] These findings were clearly observed with real-time recording. […] This evidence supports the contention that DFO strongly remediates the effects of radiation on endothelial tubule formation (see, e.g., Donneys, Alexis, et al., Plastic and Reconstructive Surgery 131.5S (2013): 141).

[4] = tested on: irradiated mandible fracture; assay: Fracture healing in the irradiated mandible, DFO injected into callus site (Example II); format: in vivo, rats
Excerpt: The effects of radiation on bone formation and healing are mediated through the mechanisms of vascular damage, direct cellular depletion and diminished function of osteocytes. Over time, this accumulated damage predisposes patients to the debilitating problem of late pathologic fractures and non-unions. Here, the use of DFO was employed to bolster the vascular response during bone healing in this setting. It was posited that the untoward effects of radiotherapy on vascular density and osteocyte count and ultimately the mineralization and biomechanical strength of our bone would be improved with the addition of DFO. 12 rats received fractionated radiotherapy to left hemi-mandibles. After recovery, fracture repair ensued with external fixator placement and mandibular osteotomy. DFO was injected into the callus site every other day from post-operative days 4-12. A 40-day healing period was allowed prior to vessel perfusion, PCT, BMT, and histologic processing. Mandibles were dissected and gross union was assessed. Union was defined as bony bridging and the absence of motion across the fracture site. Outcome data was analyzed with ANOVA, and p≤0.05 was statistically significant. The DFO group was compared with two other groups: fracture-Fx and radiated fracture-XFx (n=12, 12).

Structure (SMILES): CC(=O)N(O)CCCCCNC(=O)CCC(=O)N(O)CCCCCNC(=O)CCC(=O)N(O)CCCCCN [DFO, N′-{5-[Acetyl(hydroxy)amino]pentyl}-N-[5-({4-[(5-aminopentyl)(hydroxy)amino]-4-oxobutanoyl}amino)pentyl]-N-hydroxysuccinamide]
- Bone Mineral Density (BMD) vs non-treated controls ([1]; 14 days of consolidation): significant increases
- Bone Volume Fraction (BVF) vs non-treated controls ([1]; 14 days of consolidation): significant increases
- Ultimate Load (UL) vs non-treated controls ([1]; 14 days of consolidation): significant increases
- increase in the number of bony unions vs non-treated controls ([1]; 14 days of consolidation): 100%
- number of clinically appreciated bony unions ([1]; 14 days of consolidation, unions/animals): 8/10
- BVF, BMD, Yield and UL at 14 days vs fully consolidated 28 d control group ([1]; 14 days with treatment): comparable
- bony union rate ([1]; 28 days): 100%
- Bony Unions [2]: 67%
- radiation-induced decreases in all metrics [2]: remediated
- tubule formation vs radiated cells ([3]; high dose DFO (50 μM), 4, 8 and 12 hours, p=0.02): significantly increased
- tubule formation vs normal (control) levels ([3]; high dose DFO (50 μM), each time point): reached or exceeded normal levels
- time of incubation to organization of cultures ([3]; high-dose DFO (50 μM), real-time recording): ≤ 2 h
- BMT and mineralization metrics vs Fx group ([4]; 40-day healing): no difference
- BMT and mineralization metrics vs XFx group ([4]; 40-day healing): significant increase
- Vessel Number, Thickness and Separation ([4]; 40-day healing): significant restorative effects
- increase in bony unions vs XFx ([4]; 40-day healing): 42%
- Vessel Volume vs XFx ([4]; 40-day healing, p=0.029): significant restoration to control level
- bony union ([4]; 40-day healing, Fx 100%, XFx 25%): 67%
- empty lacunae vs XFx ([4]; histomorphometry, p=0.000): decrease
- osteocyte count vs XFx ([4]; histomorphometry, p=0.000): significant restoration to control level
